Target: Lysine-specific histone demethylase 1A (Homo sapiens, UniProt O60341)
Assay: Biochemical Analysis of LSD1 Histone Demethylase Inhibitor
Method: The biochemical inhibition activity of the synthesized compounds on LSD1 was measured. The activity measurement was performed using LSD1 fluorescence analysis kit (available from BPS Bioscience Co., Ltd., Catalog No: 50106). This analysis kit is designed to measure activity of LSD1 enzyme. H2O2 generated upon demethylation of Lys4 moiety of histone H3 by LSD1 is reacted with HRP/Amplex Red reagent to form fluorescent Resorufin, which is measured by this kit, thereby confirming demethylation.

Structure (SMILES): CCN(CC)c1ccc(-n2c(-c3ccc(C#N)c(F)c3)nc3c(N4CCC[C@@H](N)C4)ccnc32)cc1 [US12479845, Example 21]
- IC50: 27 nM
